From patent publication US12558329B2 (New York University, priority 2021, dated 2026)
“Also recorded” adds a separate entry of the source.

Test system: MIAPACA2 cells
Assay: 13C9-Tyr tracing in MIAPACA2 cells with the indicated reagents
Assay type: cell-based, human
Excerpt: 4-HMA biosynthesis has only been described in some bacteria and in rabbits. […] The production of 4-HPPA occurs in the first step of tyrosine (Tyr) catabolism via tyrosine transaminase (TAT). In rabbits, 4-HMA was proposed to be synthesized from the degradation of tyramine and octopamine by dopamine β-hydroxylase (Dbh) and monoamine oxidase (Mao) (FIG. 9A)^13. Tyramine is also a Tyr-derived metabolite. Therefore, all known substrates required to generate 4-HMA are derived from Tyr. In addition, Tyr can also be made from phenylalanine (Phe) by Phe hydroxylase (PAH) in mammalian liver cells^14. To elucidate the human 4-HMA biosynthetic pathway, the fates of ^13C9-Tyr and ^13C6-Phe were traced in human cells. […] Additionally, the generation of 4-HMA by […] would result in the incorporation of a single ^18O at the Ca position of the carboxylic acid of 4-HMA (FIG. 9A). However, this was not observed by ^18O labelling (FIG. 8B). Therefore, it was unlikely that 4-HMA biosynthesis from octopamine and tyramine catabolism occurred in the present system.
Unexpectedly, 4-HMA levels also were lower in hyperoxic (21%) conditions compared to 3% O2, reflecting either decreased production or increased consumption of this metabolite at 21% O2.
Therefore, CoQ10 was used as an indirect readout of 4-HB production. To assess the ability of human cells to biosynthesize CoQ10, cells were labelled with ^13C6-Phe or ^13C9-Tyr. CoQ10 was completely biosynthesized from Tyr, but not Phe, in human cells (FIG. 11B).
For metabolomics, briefly, cells were washed in 4° C. 0.9% saline and metabolites were extracted with 46% methanol:23% H2O:[…] chloroform that contained a labelled amino acid standard mix (MSK-A2-1.2, Cambridge Isotope Laboratories, Inc.). Enzymatic assay samples were extracted using 80% methanol: 20% H2O that contained labelled amino acid standards. Extracts were placed into 1.5 mL Eppendorf tubes, vortexed at 4° C. for 10 min and centrifuged at 4° C. for 10 min at 17,200×g in a microcentrifuge. The aqueous phase was transferred to vials for GC-MS or Eppendorf tubes for LC-MS. Polar samples were evaporated in a SpeedVac and samples were resolved by GC-MS or LC-MS. Lipid samples were dried using a stream of N2 (for ^18O labelling studies) or air. Metabolite and lipid extracts were submitted to the NYULMC Metabolomics Core Resource Laboratory.
For polar metabolomics, the LC column was a Millipore ZIC-pHILIC (2.1×150 […], 5 μm bead size) coupled to a Dionex UltiMate 3000 system. The column oven temperature was held at 25° C. The flow rate was 100 μL/min, and the injection volume was 1 μL. Buffer A was 10 mM ammonium carbonate in water, pH 9, and Buffer B was neat acetonitrile. The gradient profile was 80-20% B (0-30 min), 20-80% B (30-31 min), and 80-80% B (31-42 min). MS Analyses were carried out on a Thermo Q Exactive HF mass spectrometer using a heated electrospray ionization (HESI) source. The method duration was 30 min using a polarity-switching, top 5 method. The spray voltage for both positive and negative ion modes was 3.5 kV. The capillary temperature was 320° C. with a maximum spray current of 100 ρA. The full MS scan was carried out at 120,000 resolution with a scan range of 67-1000 m/z. For ^18O2 labelling experiments, full MS scans were carried out at 240,000 resolution at the same scan range. Tandem MS spectra were obtained at 15,000 resolution. All data were acquired in profile mode. Peak heights were analyzed using Xcalibur (ThermoFisher Scientific).
Lipid metabolomics were acquired using a Waters CSH-C18 (2.1×100 mm, 1.7 μm) column coupled to a Dionex UltiMate 3000 system. The column oven temperature was held at 55° C. The flow rate was 300 μL/min and the injection volume was 1 μL. Buffer A was 60:40 acetonitrile:water, 0.1% formic acid and Buffer B was 90:10 isopropanol:acetonitrile, 10 mM ammonium formate. […]

In the case of O=C(O)c1ccc(O)c2ncccc12 [IOX1], the “13C9-Tyr-derived 4-HMA” value (3% 16O2, 24 hours) is reported as “attenuated or ablated; also recorded: severely inhibited”, the “CoQ10 labelling from 13C9-Tyr (incorporation of tyrosine into CoQ10)” value (3% 16O2, 24 hours) is reported as “eliminated; also recorded: completely blocked” and the 4-HPLA pools (13C-Tyr, 3% O2, 24 hours) is reported as “increased”.
